Data: patent US20260274892A1, “MACROCYCLIC BROAD SPECTRUM ANTIBIOTICS” (RQx Pharmaceuticals, Inc., priority 2017, published 2026)

Tested on: Escherichia coli ATCC 25922
Test: Minimum inhibitory concentration (MIC), CLSI broth micro-dilution, E. coli
Format: cell-based
Conditions: Escherichia coli, ATCC25922, 22 h, Table 7, cation adjusted Mueller Hinton Broth + 0.002% Tween-80, 35° C.
Method in brief: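 Colonies grown 20 h at 35° C on Trypticase Soy agar (MRSA) or Luria agar (E. coli) were suspended in cation-adjusted Mueller Hinton broth with 0.002% Tween-80. Suspensions were added at OD600 0.0005 to 10-point twofold compound dilutions, then incubated 22 h at 35° C.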

MIC | Structure (SMILES)
1 µM | Cc1nc(-c2ccc(OC3CCCCC3)cc2)nc(C)c1C(=O)N[C@@H](CCNS(N)(=O)=O)C(=O)N(C)[C@@H]1C(=O)N[C@@H](C)C(=O)N[C@H](C(=O)NCC#N)Cc2ccc(O)c(c2)-c2cc1ccc2OCCN (racemic) [Compound 615, rac-(8S,11S,14S)-18-(2-aminoethoxy)-N-(cyanomethyl)-3-hydroxy-11-methyl-14-[methyl-[rac-(2S)-2-[[2-[4-(cyclohexoxy)phenyl]-4,6-dimethyl-pyrimidine-5-carbonyl]amino]-4-(sulfamoylamino)butanoyl]amino]-10,13-dioxo-9,12-diazatricyclo[13.3.1.12,6]icosa-1(18),2(20),3,5,15(19),16-hexaene-8-carboxamide]
0.5 µM | Cc1nc(-c2ccc(OC3CCCCC3)cc2)nc(C)c1C(=O)N[C@@H](CNS(N)(=O)=O)C(=O)N(C)[C@@H]1C(=O)N[C@@H](C)C(=O)N[C@H](C(=O)NCC#N)Cc2ccc(OCCN)c(c2)-c2cc1ccc2O (racemic) [Compound 616, rac-(8S,11S,14S)-3-(2-aminoethoxy)-N-(cyanomethyl)-18-hydroxy-11-methyl-14-[methyl-[rac-(2S)-2-[[2-[4-(cyclohexoxy)phenyl]-4,6-dimethyl-pyrimidine-5-carbonyl]amino]-3-(sulfamoylamino)propanoyl]amino]-10,13-dioxo-9,12-diazatricyclo[13.3.1.12,6]icosa-1(18),2(20),3,5,15(19),16-hexaene-8-carboxamide]
0.19 µM | Cc1nc(-c2ccc(C(C)(C)C)cc2)nc(C)c1C(=O)N[C@@H](CCN)C(=O)N(C)[C@@H]1C(=O)N[C@@H](C)C(=O)N[C@H](C(=O)NCC#N)Cc2ccc(O)c(c2)-c2cc1ccc2OC[C@H](O)CN (racemic) [Compound 617, rac-(8S,11S,14S)-N-(cyanomethyl)-3-hydroxy-11-methyl-14-[methyl-[rac-(2S)-4-amino-2-[[2-(4-tert-butylphenyl)-4,6-dimethyl-pyrimidine-5-carbonyl]amino]butanoyl]amino]-10,13-dioxo-18-[rac-(2R)-3-amino-2-hydroxy-propoxy]-9,12-diazatricyclo[13.3.1.12,6]icosa-1(18),2(20),3,5,15(19),16-hexaene-8-carboxamide]
0.25 µM | Cc1nc(-c2ccc(C(C)(C)C)cc2)nc(C)c1C(=O)N[C@@H](CCN)C(=O)N(C)[C@@H]1C(=O)N[C@@H](C)C(=O)N[C@H](C(=O)NCC#N)Cc2ccc(OCCN)c(c2)-c2cc1cc(NC(N)=O)c2O (racemic) [Compound 621, rac-(8S,11S,14S)-3-(2-aminoethoxy)-N-(cyanomethyl)-18-hydroxy-11-methyl-14-[methyl-[rac-(2S)-4-amino-2-[[2-(4-tert-butylphenyl)-4,6-dimethyl-pyrimidine-5-carbonyl]amino]butanoyl]amino]-10,13-dioxo-17-ureido-9,12-diazatricyclo[13.3.1.12,6]icosa-1(18),2(20),3,5,15(19),16-hexaene-8-carboxamide]
0.38 µM | Cc1nc(-c2ccc(C(C)(C)C)cc2)nc(C)c1C(=O)N[C@@H](CCN)C(=O)N(C)[C@@H]1C(=O)N[C@@H](C)C(=O)N[C@H](C(=O)NCC#N)Cc2ccc(N)c(c2)-c2cc1ccc2OCCN (racemic) [Compound 624, rac-(8S,11S,14S)-3-amino-18-(2-aminoethoxy)-N-(cyanomethyl)-11-methyl-14-[methyl-[rac-(2S)-4-amino-2-[[2-(4-tert-butylphenyl)-4,6-dimethyl-pyrimidine-5-carbonyl]amino]butanoyl]amino]-10,13-dioxo-9,12-diazatricyclo[13.3.1.12,6]icosa-1(18),2(20),3,5,15(19),16-hexaene-8-carboxamide]

Same assay, conditions: Escherichia coli, ATCC25922, Table 7, cation adjusted Mueller Hinton Broth + 0.002% Tween-80, 35° C., 22 hours

Structure (SMILES) | MIC
Cc1nc(-c2ccc(C(C)(C)C)cc2)nc(C)c1C(=O)N[C@@H](CCN)C(=O)N(C)[C@@H]1C(=O)N[C@@H](C)C(=O)N[C@H](C(=O)NCC#N)Cc2cc(NC(N)=O)c(O)c(c2)-c2cc1ccc2OCCN (racemic) [Compound 618, rac-(8S,11S,14S)-18-(2-aminoethoxy)-N-(cyanomethyl)-3-hydroxy-11-methyl-14-[methyl-[rac-(2S)-4-amino-2-[[2-(4-tert-butylphenyl)-4,6-dimethyl-pyrimidine-5-carbonyl]amino]butanoyl]amino]-10,13-dioxo-4-ureido-9,12-diazatricyclo[13.3.1.12,6]icosa-1(18),2(20),3,5,15(19),16-hexaene-8-carboxamide] | 0.19 µM
Cc1nc(-c2ccc(C(C)(C)C)cc2)nc(C)c1C(=O)N[C@@H](CCN)C(=O)N(C)[C@@H]1C(=O)N[C@@H](C)C(=O)N[C@H](C(=O)NCC#N)Cc2cc(NC(N)=O)c(OCCN)c(c2)-c2cc1ccc2OCCN (racemic) [Compound 619, rac-(8S,11S,14S)-3,18-bis(2-aminoethoxy)-N-(cyanomethyl)-11-methyl-14-[methyl-[rac-(2S)-4-amino-2-[[2-(4-tert-butylphenyl)-4,6-dimethyl-pyrimidine-5-carbonyl]amino]butanoyl]amino]-10,13-dioxo-4-ureido-9,12-diazatricyclo[13.3.1.12,6]icosa-1(18),2(20),3,5,15(19),16-hexaene-8-carboxamide] | 0.13 µM
CC(=O)Nc1cc2cc(c1O)-c1cc(ccc1OCCN)C[C@@H](C(=O)NCC#N)NC(=O)[C@H](C)NC(=O)[C@H]2N(C)C(=O)[C@H](CCN)NC(=O)c1c(C)nc(-c2ccc(C(C)(C)C)cc2)nc1C (racemic) [Compound 620, rac-(8S,11S,14S)-17-acetamido-3-(2-aminoethoxy)-N-(cyanomethyl)-18-hydroxy-11-methyl-14-[methyl-[rac-(2S)-4-amino-2-[[2-(4-tert-butylphenyl)-4,6-dimethyl-pyrimidine-5-carbonyl]amino]butanoyl]amino]-10,13-dioxo-9,12-diazatricyclo[13.3.1.12,6]icosa-1(18),2(20),3,5,15(19),16-hexaene-8-carboxamide] | 0.5 µM
Cc1nc(-c2ccc(C(C)(C)C)cc2)nc(C)c1C(=O)N[C@@H](CCN)C(=O)N(C)[C@@H]1C(=O)N[C@@H](C)C(=O)N[C@H](C(=O)NCC#N)Cc2ccc(OCCN)c(c2)-c2cc1cc(NC(N)=O)c2OCCN (racemic) [Compound 622, rac-(8S,11S,14S)-3,18-bis(2-aminoethoxy)-N-(cyanomethyl)-11-methyl-14-[methyl-[rac-(2S)-4-amino-2-[[2-(4-tert-butylphenyl)-4,6-dimethyl-pyrimidine-5-carbonyl]amino]butanoyl]amino]-10,13-dioxo-17-ureido-9,12-diazatricyclo[13.3.1.12,6]icosa-1(18),2(20),3,5,15(19),16-hexaene-8-carboxamide] | 0.5 µM
COc1cc(O)c2cc1-c1cc(ccc1OCCN)[C@H](N(C)C(=O)[C@H](CCN)NC(=O)c1c(C)nc(-c3ccc(C(C)(C)C)cc3)nc1C)C(=O)N[C@@H](C)C(=O)N[C@H](C(=O)NCC#N)C2 (racemic) [Compound 625, rac-(8S,11S,14S)-18-(2-aminoethoxy)-N-(cyanomethyl)-5-hydroxy-3-methoxy-11-methyl-14-[methyl-[rac-(2S)-4-amino-2-[[2-(4-tert-butylphenyl)-4,6-dimethyl-pyrimidine-5-carbonyl]amino]butanoyl]amino]-10,13-dioxo-9,12-diazatricyclo[13.3.1.12,6]icosa-1(18),2(20),3,5,15(19),16-hexaene-8-carboxamide] | 0.38 µM
